Reference: ChEMBL document CHEMBL5150006, “Inhibition of Histone Deacetylase 6 (HDAC6) as a therapeutic strategy for Alzheimer's disease: A review (2010-2020)” (Eur J Med Chem, 2021)
Each block holds one compound with its values, some of them ahead of it.

Columns and labels:
[1] = Half life in mouse plasma measured for 5 to 60 mins by HPLC/MS/MS analysis; assay type: ADME, cell-free; conditions: time 5-60 min
in vivo = conditions: mouse, brain and plasma
[2] = target: Glutamate [NMDA] receptor; assay: Binding affinity to NMDAR (unknown origin) assessed as inhibition constant by [3H]MK-801 binding assay; assay type: protein-complex assay, Homo sapiens
[3] = target: T1, Protein deacetylase HDAC6 (Homo sapiens, UniProt Q9UBN7); assay: Inhibition of HDAC6 in human HeLa cells measured after 2 hrs by Western blot analysis; assay type: cell-based
T1 sequence (Q9UBN7 whole entry): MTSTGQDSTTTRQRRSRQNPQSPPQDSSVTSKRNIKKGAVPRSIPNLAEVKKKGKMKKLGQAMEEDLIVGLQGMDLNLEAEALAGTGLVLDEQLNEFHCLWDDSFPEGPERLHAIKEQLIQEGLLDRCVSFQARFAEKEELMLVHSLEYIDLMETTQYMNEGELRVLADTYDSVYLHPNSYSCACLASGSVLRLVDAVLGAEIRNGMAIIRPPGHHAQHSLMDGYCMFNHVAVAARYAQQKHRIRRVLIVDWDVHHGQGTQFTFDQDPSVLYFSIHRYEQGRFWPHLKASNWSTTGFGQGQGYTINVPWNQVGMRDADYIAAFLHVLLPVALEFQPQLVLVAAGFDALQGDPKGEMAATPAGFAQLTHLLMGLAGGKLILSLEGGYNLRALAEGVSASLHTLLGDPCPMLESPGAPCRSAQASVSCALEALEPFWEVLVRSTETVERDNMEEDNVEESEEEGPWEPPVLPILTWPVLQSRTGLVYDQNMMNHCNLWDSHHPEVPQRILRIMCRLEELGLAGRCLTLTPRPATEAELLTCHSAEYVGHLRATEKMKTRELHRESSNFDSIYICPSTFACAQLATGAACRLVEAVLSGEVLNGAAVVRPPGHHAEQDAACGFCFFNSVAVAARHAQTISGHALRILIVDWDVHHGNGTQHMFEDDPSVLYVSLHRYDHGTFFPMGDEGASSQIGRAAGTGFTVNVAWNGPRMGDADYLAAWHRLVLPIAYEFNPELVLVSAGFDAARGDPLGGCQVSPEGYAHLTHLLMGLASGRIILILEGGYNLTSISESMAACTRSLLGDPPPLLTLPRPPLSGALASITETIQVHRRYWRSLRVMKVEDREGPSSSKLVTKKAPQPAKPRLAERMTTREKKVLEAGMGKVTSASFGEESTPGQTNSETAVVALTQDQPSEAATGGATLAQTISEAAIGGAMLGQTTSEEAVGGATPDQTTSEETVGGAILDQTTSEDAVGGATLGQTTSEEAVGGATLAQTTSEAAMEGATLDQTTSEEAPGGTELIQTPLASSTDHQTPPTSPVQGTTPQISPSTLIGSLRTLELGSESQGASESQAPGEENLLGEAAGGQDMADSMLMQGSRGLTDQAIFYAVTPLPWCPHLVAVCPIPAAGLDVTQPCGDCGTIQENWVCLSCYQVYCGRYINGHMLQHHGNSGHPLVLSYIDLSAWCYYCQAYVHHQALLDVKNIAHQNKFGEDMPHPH

[4] = target: T1, Protein deacetylase HDAC6; assay: Inhibition of HDAC6 (unknown origin) by microtiter plate reader analysis
[5] = target: T1, Protein deacetylase HDAC6; assay: Inhibition of HDAC6 in human SH-SY5Y cells measured after 2 hrs by Western blot analysis; assay type: cell-based
[6] = target: High affinity cGMP-specific 3',5'-cyclic phosphodiesterase 9A (Homo sapiens, UniProt O76083); assay: Inhibition of PDE9 in human SH-SY5Y cells measured after 2 hrs by Western blot analysis; assay type: cell-based
High affinity cGMP-specific 3',5'-cyclic phosphodiesterase 9A, sequence (O76083 whole entry): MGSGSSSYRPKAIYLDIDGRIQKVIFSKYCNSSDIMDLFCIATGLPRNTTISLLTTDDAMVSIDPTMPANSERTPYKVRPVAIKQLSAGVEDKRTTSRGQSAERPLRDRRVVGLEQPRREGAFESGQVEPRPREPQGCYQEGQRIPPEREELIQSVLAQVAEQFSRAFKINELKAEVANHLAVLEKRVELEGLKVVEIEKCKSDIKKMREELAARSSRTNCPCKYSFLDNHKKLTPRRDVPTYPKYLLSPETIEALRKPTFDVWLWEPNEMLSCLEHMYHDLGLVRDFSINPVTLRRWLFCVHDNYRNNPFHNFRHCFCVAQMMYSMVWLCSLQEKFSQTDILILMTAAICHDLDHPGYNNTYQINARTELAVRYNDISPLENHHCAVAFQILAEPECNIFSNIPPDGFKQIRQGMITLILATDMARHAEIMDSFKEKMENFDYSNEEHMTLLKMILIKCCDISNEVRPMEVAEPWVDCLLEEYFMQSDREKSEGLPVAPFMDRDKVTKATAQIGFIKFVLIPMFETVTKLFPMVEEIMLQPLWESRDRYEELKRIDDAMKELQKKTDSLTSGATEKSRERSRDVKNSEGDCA

half-life [1]: 12 min
SMILES: O=C(NO)c1cnc(NC2(c3ccccc3)CC2)nc1

half-life [1]: 30 min | Kp (in vivo): 1.26
SMILES: O=C(NO)c1cnc(NC2(c3cccc(F)c3)CCCCC2)nc1

Ki [2]: 590 nM | IC50 [3]: 180 nM
SMILES: CC12CC3CC(C)(C1)CC(NC(=O)/C=C/c1ccc(C(=O)NO)cc1)(C3)C2

IC50 [4]: 0.0095 nM
SMILES: CCN(CC)c1ccc(C(=O)NCCCCCCC(=O)NO)cc1

IC50 [5]: 107 nM | IC50 [6]: 40 nM
SMILES: C[C@@H]1CN(Cc2ccc(C(=O)NO)cc2)C[C@H]1c1nc2c(cnn2C2CCCC2)c(=O)[nH]1

SMILES: CN1CCc2c(c3ccccc3n2Cc2ccc(C(=O)NO)cc2)C1 [TUBASTATIN A]
Kp (in vivo): 1.22
